# Reference: PubChem BioAssay AID1508591
# Values joined by “and” are separate entries in the source; they are usually repeats but may differ in a detail not shown here. Identical values can stand only once.
# Conditions: rat; liver microsomes; pH 7.4; 15.0 min; 1.0 µM
row,Compound,half-life
1,CCCSc1nc(N[C@@H]2C[C@H]2c2ccc(F)c(F)c2)c2nnn([C@@H]3C[C@H](OCCO)[C@@H](O)[C@H]3O)c2n1,> 30 min
2,CSc1ccccc1N1CCN(CCCCCC(=O)NC2CCCc3ccccc32)CC1 (stereo unspecified),2.21 min
3,COc1ccc(-c2nc3c(c(SCC(=O)Nc4ccc(C(=O)O)cc4)n2)Cc2ccccc2O3)cc1,> 30 min
4,COc1ccc(NC(=O)c2c(C)cccc2C)cc1[S+](=O)([O-])N1CCCCCC1,1.8 min
5,Cc1sc(NC(=O)Cc2ccc3c(c2)OCO3)nc1-c1ccc2c(c1)CCN2,8.6 min
6,Cc1ccnc(NC(=S)N2CCN(c3cc(F)cc(Cl)c3)CC2)c1,21 min
7,CCOc1ccccc1C(=O)Nc1ccccc1C(=O)Nc1cccc(S(=O)(=O)C(F)(F)F)c1,> 30 min
8,O=C(Nc1nc2cc(C(F)(F)F)cc(NC3CC3)n2n1)c1cccnc1,> 30 min
9,CCN(CC)CCCNC(=O)c1oc2c(c1C)-c1nn(Cc3ccc(Cl)cc3)cc1CC2,> 30 min
10,COC(=O)CNC(=O)c1nc(-c2ccc(Cl)nc2)c2cnccn12,16.4 min
11,CN(C)c1cccc(-c2nccc(N3CCC(C(N)=O)CC3)n2)c1,8.43 min
12,O=[N+]([O-])c1cccc(CSc2nc3ncc(Br)cc3[nH]2)c1,6.6 min
13,CN(C(=O)CSc1nc2ccc(NC(=O)c3ccc(F)cc3)cc2s1)c1ccccc1,2.04 min
14,Cc1cc(C)nc(NC(=S)N2CCN(Cc3ccc(C(F)(F)F)cc3)CC2)c1,> 30 min
15,CC1CN(c2ccc(Nc3nc(-c4ccncc4)nc4ccccc34)cc2F)CC(C)O1 (stereo unspecified),5 min
16,Cc1ccc(-n2nc3c(=O)n(CCCC(=O)NCc4ccc(F)cc4)nc(C)c3c2C)cc1,2.77 min
17,C=C1c2cccc(O)c2C(O)=C2C(=O)[C@]3(O)C(O)=C(C(N)=O)C(=O)[C@@H](N(C)C)[C@@H]3[C@@H](O)[C@H]12,> 30 min
18,O=C(O)c1cccc(-n2cccc2/C=C2/NC(=O)N(c3cccc(Cl)c3)C2=O)c1,> 30 min
19,O=S(=O)(Nc1nc2n(n1)C(c1ccccc1)C=C(c1ccc(Cl)cc1)N2)c1ccccc1 (stereo unspecified),> 30 min
20,CCOC(=O)N1CCN(C(=O)Cn2sc3nc(C)cc(C)c3c2=O)CC1,> 30 min
21,CC1=C(C(=O)Nc2ccccc2C)C(c2ccccc2Br)N=C(Nc2nc3ccccc3o2)N1 (stereo unspecified),12 min
22,C[C@@]1(C(=O)Nc2ccc(F)nc2)CCCN1c1nc(Nc2cc(C3CC3)[nH]n2)c2cccn2n1,8.35 min
23,C[C@H]1CN(C(=O)c2nn(C)c3ccccc23)C[C@@H]1c1nc(-c2ccncc2)no1,5.01 min
24,CCOc1ccc(CCNC(=O)c2ccc(Oc3ccccc3)cc2)cc1OCC,1.9 min
25,FC(F)(F)c1ccc(CNc2nc(-c3ccccc3C(F)(F)F)nc3ccccc23)cc1,> 30 min
26,Fc1ccc(CNc2nc(-c3ccccc3C(F)(F)F)nc3ccccc23)cc1,19.8 min

row,Compound,half-life
1,COc1ccc(C(=O)NC2CCCc3c2[nH]c2ccccc32)cc1OC (stereo unspecified),24.6 min
2,CC1=Nc2cc(C(=O)NC3CCCC3)ccc2Sc2ccc(C)cc21,3.31 min
3,Cc1ccc(NC(=O)c2cc(-c3ccc[nH]3)n[nH]2)cc1F,6.16 min
4,Cc1ccc(S(=O)(=O)Nc2cnccc2C(=O)NCCc2ccccc2)cc1,4.9 min
5,CCN(CC)CCNC(=O)C1CCN(c2nn3cc(-c4ccc(F)cc4)nc3s2)CC1,> 30 min
6,COc1ccc(C2=Nc3ccc(C)cc3C(c3ccccc3)N2CC(=O)NN)cc1 (stereo unspecified),5.3 min
7,O=[S+]([O-])(Nc1nccs1)c1ccc(NCc2cccc(Cl)c2)cc1,15 min
8,O=C(Nc1nc(-c2ccccc2)cs1)c1ccncc1NS(=O)(=O)c1cccc2cccnc12,7.4 min
9,CCOc1ccccc1N(CC(=O)N1CCOCC1)S(=O)(=O)c1ccc(SC)cc1,1.45 min
10,COCC(C)Nc1ncnc2c1cnn2-c1ccc(C)c(C)c1 (stereo unspecified),23.7 min
11,Cc1cccc2nc(NC3=NC(c4[nH]ncc4Cl)C4=C(CCCC4=O)N3)oc12 (stereo unspecified),1.6 min
12,COC(=O)[C@@]12OC[C@]34[C@H]([C@@H](O)[C@@H]1O)[C@@]1(C)CC(=O)C(O)=C(C)[C@@H]1C[C@H]3OC(=O)[C@H](OC(=O)/C=C(\C)C(C)C)[C@@H]24,10.1 min
13,CCN(CCN(C)C)C(=O)C1CCN(S(=O)(=O)c2c(C)noc2/C=C/c2ccccc2F)CC1,> 30 min
14,O=C(Nc1ccc2oc(-c3cccnc3)nc2c1)c1ccc(-c2cccc(Cl)c2)o1,> 30 min
15,CCOc1ccc(CCNC(=O)c2cc3sccc3n2C)cc1OCC,1.6 min
16,C[C@@H]1C(=O)O[C@H]2[C@H]1CC[C@@]1(C)Cc3sc(NS(=O)(=O)Cc4ccccc4)nc3[C@@H](C)[C@H]21,1.69 min
17,O=C(Nc1nc(-c2ccccc2)cs1)c1ccncc1NS(=O)(=O)c1ccc2ccccc2c1,8.4 min
18,CN(C)C(=O)c1cc(-c2ccc(S(C)(=O)=O)cc2)c2cnn(C)c2n1,> 30 min
19,CCOc1ccc(OCC)c(NC(=O)C(NS(=O)(=O)c2ccc(Br)s2)c2ccccc2)c1 (stereo unspecified),2.04 min
20,C[C@]12N[C@H](Cc3ccccc31)c1ccccc12,> 30 min
21,Cc1ccc(S(=O)(=O)NC2CCCCC2)cc1,1 min
22,COC(=O)c1c(NC(=O)Cc2coc3cc(C)ccc23)sc2c1CCC2,2.31 min
23,COc1cc2c(Oc3ccc(-c4cnc(Nc5ccc(F)cc5)n(C)c4=O)cc3F)ccnc2cc1OCCCN1CCOCC1,> 30 min
24,O=C(O)CCNc1cc(N2CCc3ccccc3CC2)nc(-c2ccccn2)n1,> 30 min
25,O=C1NCc2ccc(-c3cc4c(ccn4Cc4cccnc4)c(C4=CCOCC4)n3)cc21,19.5 min
26,CCS(=O)(=O)N1CC(CC#N)(n2cc(-c3ncnc4[nH]ccc34)cn2)C1,> 30 min

row,Compound,half-life
1,COc1cccc(CNc2ccc(S(=O)(=O)Nc3nc4ccccc4[nH]3)cc2)c1O,> 30 min
2,CCC1=Nc2cc(C(=O)NCCCOC)ccc2Sc2ccc(Br)cc21,5.46 min
3,OC1(CN2CCN(c3ccc(F)c(Cl)c3)CC2)CCCNC1 (stereo unspecified),5.96 min
4,Cc1ccc(-n2ncc(C(=O)NCCN3CCC(Cc4ccccc4)CC3)c2C2CCN(C(=O)OC(C)(C)C)CC2)cc1,9.29 min
5,O=C(Nc1nc(-c2ccccc2)cs1)c1ccncc1NS(=O)(=O)c1ccc(F)c(F)c1,11 min
6,O=C1c2ccccc2C2=Nc3ccccc3SC(c3ccccc3F)C12 (stereo unspecified),3.11 min
7,CCOc1cc(CNc2ccc(O)cc2)ccc1OCc1ccc(Cl)cc1,3.84 min
8,Cc1cccc(C(=O)Nc2ccc(N3CCC(N4CCCCC4)CC3)c(C(=O)O)c2)c1,> 30 min
9,Cc1cc(N[S+](=O)([O-])c2ccc(NC(=O)Cc3ccc(F)c(F)c3)cc2)no1,> 30 min
10,CCc1ccc(NC(=O)CSC2=Nc3ccccc3C3=NC(CC(=O)NCc4ccc5c(c4)OCO5)C(=O)N23)cc1 (stereo unspecified),2.86 min
11,O=S(=O)(Nc1nccs1)c1ccc(NCc2ccc(Cl)cc2O)cc1,7.5 min
12,O=C(Nc1ccc(N2CCC(N3CCCCC3)CC2)c(C(=O)O)c1)c1ccc(Br)cc1,> 30 min
13,O=C(Nc1nc(-c2ccccn2)cs1)c1cccc(-n2cnnn2)c1,> 30 min
14,CCN(CC)CCCC(C)Nc1cc(/C=C/c2ccccc2Cl)nc2cc(Cl)ccc12 (stereo unspecified),7.34 min
15,CC(=O)c1c(C)[nH]c(C(=O)Nc2cccc(S(=O)(=O)Nc3ccc(Br)cc3)c2)c1C,18 min
16,COc1ccc(CNc2ccc(S(=O)(=O)Nc3nccs3)cc2)c(O)c1,3.9 min
17,COc1ccc(-n2nc(C3CCCN(CC4CCCCC4)C3)[nH]c2=O)cc1 (stereo unspecified),> 30 min
18,Cc1ccc([S+](=O)([O-])n2cc(Cc3ccc(-c4ccccc4)cc3)c3ccccc32)cc1,22 min
19,CCOC(=O)C1CCN(C(=O)C(C)(C)NC(=O)Nc2ccc(-c3ccccc3)cc2)CC1,1.4 min
20,CCN1CCN(c2ccc(Nc3ccc(-c4ccc(C(N)=O)cc4)n4ncnc34)cc2)CC1,> 30 min
21,Cc1cccc(-n2cnc3cc(C(=O)N4CCCC(C)C4)ccc32)c1 (stereo unspecified),2.5 min
22,Cn1c2cc(S(C)=O)sc2c2cnn(Cc3cccc(N)c3)c(=O)c21 (stereo unspecified),> 30 min
23,CCOc1ccc(CCNC(=O)c2cc3cnccc3n2Cc2cccc(C)n2)cc1OCC,29 min
24,Cn1c(=O)c2c(-c3ccc(Br)cc3)n(CCc3ccccc3)cc2n(C)c1=O,1.23 min
25,COc1ccc(C(=O)Nc2nc(-c3ccccc3)cs2)c(NS(=O)(=O)c2ccc(C)cc2)c1,6.5 min
26,O=C(Nc1ccc(S(=O)(=O)Nc2nccs2)cc1)c1ccc(-c2ccccc2)cc1,> 30 min

row,Compound,half-life
1,Cc1cc(CNC(=O)c2ccc3c(c2)n(CC2CC2)c(=O)n3C2CCCCC2)on1,12.4 min
2,N[C@@H](Cc1cc(Br)c(O)c(Br)c1)C(=O)O,> 30 min
3,CN(C)c1cccc(-c2cnc(N3CCC(c4ncc[nH]4)CC3)s2)c1,4.63 min
4,c1ccc2c(Nc3ccc4nc[nH]c4c3)nc(-c3ccncc3)nc2c1,16 min
5,CC(C)Oc1ccc(C(=O)Nc2ccc3c(c2)CCCN3C(=O)c2cccs2)cc1,4.8 min
6,O=S(=O)(Nc1nccs1)c1ccc(NCc2ccc(Br)cc2O)cc1,5.4 min
7,Fc1cc(Nc2nc(-c3ccncc3)nc3ccccc23)ccc1C(F)(F)F,17 min
8,CNC(=O)c1cccc(-c2cnc(Nc3cccc(C(F)(F)F)c3)c3c2CCO3)c1,> 30 min
9,COc1ccc(C2Nc3ccccc3C(=O)N2Cc2ccco2)cc1 (stereo unspecified),1.6 min
10,COC(=O)[C@H](NC(=O)c1cc(-c2ccccc2)nc2ccccc12)c1ccccc1,11 min
11,Cc1noc(C)c1-c1ccc2ncnc(N3CCC(C(=O)O)CC3)c2c1,> 30 min
12,CCOC(=O)c1cc(-c2ccco2)nc2c1c(C)nn2CCC#N,3.57 min
13,Cc1ccc(NS(=O)(=O)c2cccc(C(=O)Nc3nc(-c4ccccc4)cs3)c2)cc1,6.7 min
14,CCOC(=O)Cc1ccc(NC(=O)n2ncc3cc(Cl)ccc32)cc1,2.5 min
15,O=C1Nc2ccccc2/C1=C\c1ccc(O)cc1,14 min
16,Cc1cccc(CS(=O)(=O)c2ncc(Cl)c(C(=O)Nc3nc4ccc(F)cc4s3)n2)c1,1.43 min
17,CN=C1CN=C(c2ccc[nH]2)c2cc(Cl)ccc2N1,> 30 min and 23 min
18,Cc1cc(C)c(C(=O)Nc2cccc([S+](=O)([O-])N3CCCCCC3)c2)[nH]1,1.7 min
19,NC(=O)C1CCN(c2nccc(-c3ccc4c(c3)OCCO4)n2)CC1,1.71 min
20,Nc1cc2nc3ccccc3oc-2cc1=O,8.63 min
21,CC(=O)Nc1cccc(Nc2nc3ccccc3n3c(C)nnc23)c1,> 30 min
22,COc1ccc(Nc2ncc(C(=O)Nc3cccc(Cl)c3)c3ccccc23)cc1,16.5 min
23,O=C(Nc1ccc(S(=O)(=O)Nc2nccs2)cc1)c1ccncc1,> 30 min
